Assay results: patent publication US20200131196A1 (Mount Tam Therapeutics, Inc., priority 2017, published 2020)

Legend:
NCIH446 = assay: OncoPanel cell proliferation assay, NCIH446; assay type: cell-based, human
Protocol: (§1) Cells were grown in RPMI 1640, 10% FBS, 2 mM L-alanyl-L-glutamine, 1 mM Na pyruvate, or a special medium. Cells were seeded into 384-well plates and incubated in a humidified atmosphere of 5% CO2 at 37° C. Compounds were added the day following cell seeding. At the same time, a time zero untreated cell plate was generated. After a 3-day incubation period, cells were fixed and stained to allow fluorescence imaging of nuclei. Compounds (1 mM stock solutions) were serially diluted in half-log steps from the highest test concentration ([…]), and assayed over 10 concentrations with a maximum assay concentration of 0.1% DMSO. Automated fluorescence microscopy was carried out using a Molecular Devices ImageXpress Micro XL high-content imager, and images were collected with a 4× objective. 16-bit TIFF images were acquired and analyzed with MetaXpress 5.1.0.41 software.
(§2) Cell proliferation was measured by the fluorescence intensity of an incorporated nuclear dye. The output is referred to as the relative cell count, where the measured nuclear intensity is transformed to percent of control (POC) using the following formula: […]
(§3) Cellular response parameters were calculated using nonlinear regression to a sigmoidal single-site dose response model:
(§4) EC50 is the test compound concentration at the curve inflection point or half the effective response (parameter C of the fitted curve solution). GI50 is the concentration needed to reduce the observed growth by half (midway between the curve maximum and the time zero value). “Cell Count Activity Area” is an estimate of the integrated area above the curve (Barretina, et al. The Cancer Cell Line Encyclopedia enables predictive modelling of anticancer drug sensitivity. Nature 483: 603-607). […] In rare instances, values <0 or >10 may be observed. […] Curve-fitting, calculations, and report generation was performed using a custom data reduction engine and MathIQ based software (AIM).

SW684 = assay: OncoPanel cell proliferation assay, SW684; assay type: cell-based, human
Protocol: as §1, with “Cells” for “Cells were grown in RPMI 1640, 10% FBS, 2 mM L-alanyl-L-glutamine, 1 mM Na pyruvate, or a special medium. Cells”
as §2, §3
GI50 is the concentration needed to reduce the observed growth by half (midway between the curve maximum and the time zero value). […] In rare instances, values <0 or >10 may be observed. […] Curve-fitting, calculations, and report generation was performed using a custom data reduction engine and MathIQ based software (AIM).

Hs 729 = assay: OncoPanel cell proliferation assay, Hs 729; assay type: cell-based, human
Protocol: as §1, §2, §3, §4

786-O = assay: OncoPanel cell proliferation assay, 786-O; assay type: cell-based, human; settings: 786-O
Protocol: as §1, §2, §3, §4

CML-T1 = assay: OncoPanel cell proliferation assay, CML-T1; assay type: cell-based, human
Protocol: as §1, §2, §3, §4

SK-N-AS = assay: OncoPanel cell proliferation assay, SK-N-AS; assay type: cell-based, human
Protocol: as §1, §2, §3, §4

SCaBER = assay: OncoPanel cell proliferation assay, SCaBER; assay type: cell-based, human
Protocol: as §1, §2, §3, §4

ST486 = assay: OncoPanel cell proliferation assay, ST486; assay type: cell-based, human
Protocol: as §1, §2, §3, §4

T24 = assay: OncoPanel cell proliferation assay, T24; assay type: cell-based, human
Protocol: as §1, §2, §3, §4

OVCAR3 = assay: OncoPanel cell proliferation assay, OVCAR3
Protocol: (§5) Cells were seeded into 384-well plates and incubated in a humidified atmosphere of 5% CO2 at 37° C. Compounds were added the day following cell seeding. At the same time, a time zero untreated cell plate was generated. After a 3-day incubation period, cells were fixed and stained to allow fluorescence imaging of nuclei. Compounds (1 mM stock solutions) were serially diluted in half-log steps from the highest test concentration (1 micromol), and assayed over 10 concentrations with a maximum assay concentration of 0.1% DMSO. Automated fluorescence microscopy was carried out using a Molecular Devices ImageXpress Micro XL high-content imager, and images were collected with a 4× objective. 16-bit TIFF images were acquired and analyzed with MetaXpress 5.1.0.41 software.

SHP-77 = assay: OncoPanel cell proliferation assay, SHP-77
Protocol: as §5

CHP-212 = assay: OncoPanel cell proliferation assay, CHP-212
Protocol: as §5

[1] = Homo sapiens, read-out: Cell Count GI50
[2] = Homo sapiens, read-out: Cell Count IC50
[3] = Homo sapiens, read-out: Cell Count EC50

## CO[C@H]1C[C@@H]2CC[C@@H](C)[C@@](O)(O2)C(=O)C(=O)N2CCCC[C@H]2C(=O)O[C@H]([C@H](C)C[C@@H]2CC[C@@H](O)[C@H](OC)C2)CC(=O)[C@H](C)/C=C(\C)[C@@H](O)[C@@H](OC)C(=O)[C@H](C)C[C@H](C)/C=C/C=C/C=C/1C [Rapamycin, reference compound]
NCIH446
  Cell Count Activity Area: 1.69
NCIH446; Homo sapiens, NCI-H446, read-out: Cell Count EC50
  EC50: > 1000 nM
NCIH446; Homo sapiens, NCI-H446, read-out: Cell Count GI50
  GI50: 44.4 nM
NCIH446; Homo sapiens, NCI-H446, read-out: Cell Count IC50
  IC50: > 1000 nM
SW684
  Cell Count Activity Area: 2.81
SW684; [1]
  GI50: 1.97 nM
SW684; [2]
  IC50: > 1000 nM
Hs 729
  Cell Count Activity Area: 0.55
Hs 729; [3]
  EC50: > 1000 nM
Hs 729; [1]
  GI50: > 1000 nM
Hs 729; [2]
  IC50: > 1000 nM
786-O
  Cell Count Activity Area: 4.17
786-O; Homo sapiens, 786-0, read-out: Cell Count EC50
  EC50: 0.227 nM
786-O; Homo sapiens, 786-0, read-out: Cell Count GI50
  GI50: 1.13 nM
786-O; Homo sapiens, 786-0, read-out: Cell Count IC50
  IC50: 3.18 nM
CML-T1
  Cell Count Activity Area: 4.56
CML-T1; [3]
  EC50: 0.189 nM
CML-T1; [1]
  GI50: 0.694 nM
CML-T1; [2]
  IC50: 1.93 nM
SK-N-AS
  Cell Count Activity Area: 3.58
SK-N-AS; [3]
  EC50: 0.231 nM
SK-N-AS; [1]
  GI50: 0.432 nM
SK-N-AS; [2]
  IC50: > 1000 nM
SCaBER
  Cell Count Activity Area: 5.25
SCaBER; [3]
  EC50: 0.0377 nM
SCaBER; [1]
  GI50: 0.158 nM
SCaBER; [2]
  IC50: 0.321 nM
ST486
  Cell Count Activity Area: 3.99
ST486; [3]
  EC50: 0.0354 nM
ST486; [1]
  GI50: 0.0524 nM
ST486; [2]
  IC50: > 1000 nM
T24
  Cell Count Activity Area: 4.39
T24; Homo sapiens, T-24, read-out: Cell Count EC50
  EC50: 0.0783 nM
T24; Homo sapiens, T-24, read-out: Cell Count GI50
  GI50: 0.474 nM
T24; Homo sapiens, T-24, read-out: Cell Count IC50
  IC50: 2.1 nM
OVCAR3; Homo sapiens, OVCAR-3, read-out: Cell Count EC50
  EC50: 1.53 nM
OVCAR3; Homo sapiens, OVCAR-3, read-out: Cell Count GI50
  GI50: 124 nM
OVCAR3; Homo sapiens, OVCAR-3, read-out: Cell Count IC50
  IC50: > 1000 nM
OVCAR3; OVCAR3
  Cell Count Activity Area: 2.08
SHP-77; Homo sapiens, SHP77, read-out: Cell Count EC50
  EC50: > 1000 nM
SHP-77; Homo sapiens, SHP77, read-out: Cell Count GI50
  GI50: > 1000 nM
SHP-77; Homo sapiens, SHP77, read-out: Cell Count IC50
  IC50: > 1000 nM
SHP-77; SHP-77
  Cell Count Activity Area: 1.13
CHP-212; CHP-212
  Cell Count Activity Area: 4.13
CHP-212; Homo sapiens, CHP-212, read-out: Cell Count EC50
  EC50: 0.0376 nM
CHP-212; Homo sapiens, CHP-212, read-out: Cell Count GI50
  GI50: 0.0707 nM
CHP-212; Homo sapiens, CHP-212, read-out: Cell Count IC50
  IC50: > 1000 nM
